Measured values as given in PMC11510191, “Exploring Benzo[h]chromene Derivatives as Agents against Protozoal and Mycobacterial Infections” (Pharmaceuticals, 2024).
In brackets after ≈: the same amount, converted by molar mass. Like-named read-outs stand apart in the source and are kept apart here.

Key:
[1] = Cytotoxicity on L929 fibroblasts (resazurin); conditions: mouse
T. cruzi epimastigotes = assay: Trypanocidal activity on T. cruzi epimastigotes (CL-B5 lacZ, CPRG); format: cell-based, Trypanosoma cruzi clone CL-B5; conditions: for Selectivity Index L929/ T. cruzi: SI = CC50 L929/IC50 parasites; for IC50: Trypanosoma cruzi, 72 h
Procedure: For in vitro studies of T. cruzi. the clone CL-B5 was used. Parasites were stably transfected with the Escherichia coli β-galactosidase gene (lacZ), provided by Facultad de Farmacia (Universidad Complutense de Madrid). Epimastigotes were grown at 28 °C in liver infusion tryptose broth (Difco, Detroit, MI, USA) with 10% fetal bovine serum (FBS) (Gibco, Carlsbad, CA, USA), penicillin (Ern S.A., Barcelona, Spain), and streptomycin (Reig Jofré S.A., Barcelona. Spain), as described previously, and harvested during the exponential growth phase. Briefly, the screening assay was performed in 96-well microplates (Sarstedt, Inc., Newton, NC, USA) with cultures that had not reached the stationary phase. Briefly, epimastigotes were seeded at 2 × 10^5 parasites/mL in 200 µL growth media. The plates were then incubated with the respective compounds at 28 °C for 72 h. Afterwards, 50 µL of CPRG solution was added, resulting in a final concentration of 200 µM. The plates were incubated at 37 °C for an additional 4 h and then read at 595 nm. Each concentration was tested in triplicate. […] These values were calculated from the sigmoidal dose–response curve adjustment using the statistical software program Graph-Pad Prims 3.0. Benznidazole was used as a reference drug.

[2] = tested on: Leishmania brazilensis (L. b) promastigotes; assay: Leishmanicidal activity on L. braziliensis promastigotes (resazurin); conditions: for IC50: Leishmania, 48 h, read-out: Leishmanicidal Activity IC50—L. b
Procedure: (§1) The culture of L. braziliensis (MHOM/CO/88/UA301) and L. infantum (MCAN/ES/92/BCN83) was obtained from the Facultad de Farmacia, Universidad Complutense de Madrid, Spain.
(§2) The maintenance of the strains, the form of cultivation, and the isolation of shape promastigota followed the procedures described by Roldós et al. [8]. The promastigotes were grown at 22 °C in Schneider’s Drosophila medium supplemented with 20% FBS. The assay was performed using a modification of a previous method [47]. Promastigotes (2 × 10^6 parasites/well) were cultured in 96-well plastic plates. Compounds were dissolved in dimethylsulfoxide (DMSO). Different dilutions of the compounds up to a 200 µL final volume were added. After 48 h at 26 °C, 20 µL of 2 mM resazurin solution was added and the oxidation–reduction was quantified at 570 and 600 nm. The solution of resazurin was prepared at 2.5 mM in phosphate-buffered solution (PBS), pH 7.4, and filtered through 0.22 µM prior to use. All tests were carried out in triplicate. Resazurin sodium salt was obtained from Sigma–Aldrich (St. Louis, MO, USA) and stored at 4 °C protected from light. The efficacy of each compound was estimated by calculating the IC50 values.

[3] = tested on: Leishmania infantum (L. i) promastigotes; assay: Leishmanicidal activity on L. infantum promastigotes (resazurin); conditions: for IC50: Leishmania infantum, 48 h, read-out: Leishmanicidal Activity IC50—L. i
Procedure: as §1, §2

[4] = tested on: M. intracellulare LIID-01; assay: MIC broth microdilution; format: cell-based; conditions: Mycobacterium intracellulare, LIID01
M. abscessus LIID-01 = assay: MIC broth microdilution; format: cell-based; conditions: Mycobacteroides abscessus, LIID01, 72 h
[5] = tested on: M. intracellulare LIID-02; assay: MIC broth microdilution; format: cell-based; conditions: Mycobacterium intracellulare, LIID02
M. fortuitum LIID-01 = assay: MIC broth microdilution; format: cell-based; conditions: Mycolicibacterium fortuitum, LIID01, 72 h
M. abscessus LIID-03 = assay: MIC broth microdilution; format: cell-based; conditions: Mycobacteroides abscessus, LIID03, 72 h
M. abscessus LIID-02 = assay: MIC broth microdilution; format: cell-based; conditions: Mycobacteroides abscessus, LIID02, 72 h
P. aeruginosa (G−) = assay: MIC broth microdilution; format: cell-based; conditions: Pseudomonas aeruginosa, 24 h
L. monocytogenes (G+) = assay: MIC broth microdilution; format: cell-based; conditions: Listeria monocytogenes, 24 h
B. cereus (G+) = assay: MIC broth microdilution; format: cell-based; conditions: Bacillus cereus, 24 h
S. typhi (G−) = assay: MIC broth microdilution; format: cell-based; conditions: Salmonella enterica, 24 h
M. luteus (G+) = assay: MIC broth microdilution; format: cell-based; conditions: Micrococcus luteus, 24 h
E. coli (G−) = assay: MIC broth microdilution; format: cell-based; conditions: Escherichia coli, 24 h
S. aureus (G+) = assay: MIC broth microdilution; format: cell-based; conditions: Staphylococcus aureus, 24 h
E. faecalis (G+) = assay: MIC broth microdilution; format: cell-based; conditions: Enterococcus faecalis, 24 h
L. innocua (G+) = assay: MIC broth microdilution; format: cell-based; conditions: Listeria innocua, 24 h
[6] = tested on: M. tuberculosis CIPTIR-F296; assay: MIC broth microdilution; format: cell-based; conditions: Mycobacterium tuberculosis, CIPTIRF296; M. tuberculosis CIPTIR-F296; read-out: MIC
[7] = tested on: M. tuberculosis ATCC H37Rv; assay: MIC broth microdilution; format: cell-based; conditions: Mycobacterium tuberculosis; M. tuberculosis ATCC H37Rv; read-out: MIC
[8] = tested on: M. tuberculosis CIPTIR -D152; assay: MIC broth microdilution; format: cell-based; conditions: Mycobacterium tuberculosis; M. tuberculosis CIPTIR -D152; read-out: MIC
[9] = epimastigotes, read-out: Trypanocidal Activity IC50 T. cruzi

Structure (SMILES) | CC50 at 24 h [1] [µM] | IC50 (T. cruzi epimastigotes; [9]) [µM] | IC50 [2] [µM] | IC50 [3] [µM] | also measured
O=C(Cn1ccnc1[N+](=O)[O-])NCc1ccccc1 [Benznidazole, reference compound] | 769 | 54.7 |  |  | Selectivity Index L929/ T. cruzi (T. cruzi epimastigotes): 14.0
Cc1ccc(-n2cc(CCCC(=O)Oc3c4c(c5ccccc5c3OC(=O)CCCc3cn(-c5ccc(C)cc5)nn3)OC(C)(C)C=C4)nn2)cc1 [Compound 3d] | > 256 | > 256 | > 256 | > 256 | 
CC1(C)C=Cc2c(OC(=O)CCCc3cn(Cc4ccc(Br)cc4)nn3)c(OC(=O)CCCc3cn(Cc4ccc(Br)cc4)nn3)c3ccccc3c2O1 [Compound 3i] | > 256 | > 256 | > 256 | > 256 | 
Cc1ccc(-n2cc(CCC(=O)Oc3c4c(c5ccccc5c3OC(=O)CCc3cn(-c5ccc(C)cc5)nn3)OC(C)(C)C=C4)nn2)cc1 [Compound 2d] | > 256 | > 256 | > 256 | > 256 | 
C[C@@H](O)[C@H]1C(=O)N2C(C(=O)O)=C(SCCN=CN)C[C@H]12 [Imipenem, reference compound] |  |  |  |  | MIC [4]: 1 µg/mL (≈ 3.34 µM); MIC (M. abscessus LIID-01): 32 µg/mL (≈ 107 µM); MIC [5]: > 64 µg/mL; MIC (M. fortuitum LIID-01): 4 µg/mL (≈ 13.4 µM); MIC (M. abscessus LIID-03): 8 µg/mL (≈ 26.7 µM); MIC (M. abscessus LIID-02): 32 µg/mL (≈ 107 µM)
C#CCCCC(=O)Oc1c2c(c3ccccc3c1OC(=O)CCCC#C)OC(C)(C)C=C2 [Compound 1b] | 128 | 37.3 | 6.7 | 30.5 | Selectivity Index L929/ L. b ([2]; SI = CC50 L929/IC50 parasites): 19; Selectivity Index L929/ T. cruzi (T. cruzi epimastigotes): 3; Selectivity Index L929/ L. i ([3]; SI = CC50 L929/IC50 parasites): 4
CNC(C)C1CCC(N)C(OC2C(N)CC(N)C(OC3OCC(C)(O)C(NC)C3O)C2O)O1 (stereo not drawn) [Gentamicin, reference compound] |  |  |  |  | MIC (P. aeruginosa (G−)): 0.78 µg/mL (≈ 1.63 µM); MIC (L. monocytogenes (G+)): 0.2 µg/mL (≈ 0.419 µM); MIC (B. cereus (G+)): 0.78 µg/mL (≈ 1.63 µM); MIC (S. typhi (G−)): 0.1 µg/mL (≈ 0.209 µM); MIC (M. luteus (G+)): 0.78 µg/mL (≈ 1.63 µM); MIC (E. coli (G−)): 0.2 µg/mL (≈ 0.419 µM); MIC (S. aureus (G+)): 0.1 µg/mL (≈ 0.209 µM); MIC (E. faecalis (G+)): 0.78 µg/mL (≈ 1.63 µM); MIC (L. innocua (G+)): 1.56 µg/mL (≈ 3.27 µM)
CC1(C)C=Cc2c(OC(=O)CCc3cn(-c4ccc(Cl)cc4)nn3)c(OC(=O)CCc3cn(-c4ccc(Cl)cc4)nn3)c3ccccc3c2O1 [Compound 2c] | > 256 | > 256 | > 256 | > 256 | 
CC1(C)C=Cc2c(OC(=O)CCc3cn(-c4cccc(Cl)c4)nn3)c(OC(=O)CCc3cn(-c4cccc(Cl)c4)nn3)c3ccccc3c2O1 [Compound 2g] | > 384 |  | > 256 | > 256 | IC50 (T. cruzi epimastigotes; read-out: Trypanocidal Activity IC50 T. cruzi, epimastigotes, 72 h): > 256 µM
CC1(C)C=Cc2c(OC(=O)CCc3cn(Cc4ccc([N+](=O)[O-])cc4)nn3)c(OC(=O)CCc3cn(Cc4ccc([N+](=O)[O-])cc4)nn3)c3ccccc3c2O1 [Compound 2h] | > 256 | > 256 | > 256 | > 256 | 
CC1(C)C=Cc2c(OC(=O)CCc3cn(Cc4ccc(Br)cc4)nn3)c(OC(=O)CCc3cn(Cc4ccc(Br)cc4)nn3)c3ccccc3c2O1 [Compound 2i] | > 256 | > 256 | > 256 | > 256 | 
CC1(C)C=Cc2c(OC(=O)CCCc3cn(-c4ccccc4)nn3)c(OC(=O)CCCc3cn(-c4ccccc4)nn3)c3ccccc3c2O1 [Compound 3a] | > 256 | > 256 | > 256 | > 256 | 
COc1ccc(-n2cc(CCC(=O)Oc3c4c(c5ccccc5c3OC(=O)CCc3cn(-c5ccc(OC)cc5)nn3)OC(C)(C)C=C4)nn2)cc1 [Compound 2b] | > 256 | 204 | > 256 | > 256 | Selectivity Index L929/ T. cruzi (T. cruzi epimastigotes): >1
CC(=O)NC[C@H]1CN(c2ccc(N3CCOCC3)c(F)c2)C(=O)O1 [Linezolid, reference compound] |  |  |  |  | MIC [4]: 2 µg/mL (≈ 5.93 µM); MIC (M. abscessus LIID-01): 1 µg/mL (≈ 2.96 µM); MIC [5]: 8 µg/mL (≈ 23.7 µM); MIC (M. fortuitum LIID-01): 8 µg/mL (≈ 23.7 µM); MIC (M. abscessus LIID-03): 1 µg/mL (≈ 2.96 µM); MIC (M. abscessus LIID-02): 1 µg/mL (≈ 2.96 µM)
CC1(C)C=Cc2c(OC(=O)CCCc3cn(-c4cccc(Cl)c4)nn3)c(OC(=O)CCCc3cn(-c4cccc(Cl)c4)nn3)c3ccccc3c2O1 [Compound 3g] | > 384 | 146 | > 256 | > 256 | Selectivity Index L929/ T. cruzi (T. cruzi epimastigotes): >3
COc1ccc(-n2cc(CCCC(=O)Oc3c4c(c5ccccc5c3OC(=O)CCCc3cn(-c5ccc(OC)cc5)nn3)OC(C)(C)C=C4)nn2)cc1 [Compound 3b] | > 256 | > 256 | > 256 | > 256 | 
CC(=O)O[C@@H]1[C@@H](OC(C)=O)[C@H](OC(C)=O)CO[C@H]1n1cc(CCC(=O)Oc2c3c(c4ccccc4c2OC(=O)CCc2cn([C@@H]4OC[C@@H](OC(C)=O)[C@H](OC(C)=O)[C@H]4OC(C)=O)nn2)OC(C)(C)C=C3)nn1 [Compound 2e] | > 256 | > 256 | > 256 | > 256 | 
CC1(C)C=Cc2c(OC(=O)CCc3cn(-c4ccccc4)nn3)c(OC(=O)CCc3cn(-c4ccccc4)nn3)c3ccccc3c2O1 [Compound 2a] | > 256 | 68.7 | > 256 | > 256 | Selectivity Index L929/ T. cruzi (T. cruzi epimastigotes): >4
CO[C@H]1/C=C/O[C@@]2(C)Oc3c(C)c(O)c4c(O)c(c(/C=N/N5CCN(C)CC5)c(O)c4c3C2=O)NC(=O)/C(C)=C\C=C\[C@H](C)[C@H](O)[C@@H](C)[C@@H](O)[C@@H](C)[C@H](OC(C)=O)[C@@H]1C [Rifampicin, reference compound] |  |  |  |  | MIC [6]: 1 µg/mL (≈ 1.22 µM); MIC [7]: 2 µg/mL (≈ 2.43 µM); MIC [8]: 32 µg/mL (≈ 38.9 µM)
CC1(C)C=Cc2c(OC(=O)CCCc3cn(-c4ccc(Cl)cc4)nn3)c(OC(=O)CCCc3cn(-c4ccc(Cl)cc4)nn3)c3ccccc3c2O1 [Compound 3c] | > 256 | > 256 | > 256 | > 256 | 
